Laboratory results published in US20230398130A1, “METHODS AND COMPOSITIONS FOR DIFFERENTIATING STEM CELLS” (Massachusetts Institute of Technology, priority 2020, published 2023).

Experiments:
ISC-enriched organoids [1] = assay: Primary screen, 384-well 2.5-D organoid differentiation (ENR+CD, 6 days): basal lysozyme secretion (LYZ.NS); type: cell-based, murine; conditions: for Dose.FC.LYZ.NS: ENR+CD, 6 days, FC vs plate median; for Z.LYZ.NS: standard z score of FC
From the text: (§1) High-throughput screening.

ISC-enriched organoids [2] = assay: Primary screen, 384-well 2.5-D organoid differentiation (ENR+CD, 6 days): carbachol-induced lysozyme secretion (LYZ.S); type: cell-based, murine; conditions: ENR+CD, 6 days, FC vs plate median
From the text: as §1

ISC-enriched organoids [3] = assay: Primary screen, 384-well 2.5-D organoid differentiation (ENR+CD, 6 days, Target Selective Inhibitor Library, vs whole-plate median): ATP (CellTiter-Glo 3D, CTG); conditions: for Dose.FC.CTG: ENR+CD, 6 days, FC vs plate median; for Z.CTG: standard z score of FC

| Structure (SMILES) | Dose.FC.LYZ.NS (ISC-enriched organoids [1]; Dose 0.08 uM) [log 2 fold change] | Z.LYZ.NS (ISC-enriched organoids [1]; Dose 0.08 uM) | Dose.FC.LYZ.NS (ISC-enriched organoids [1]; Dose 0.40 uM) [log 2 fold change] | Z.LYZ.NS (ISC-enriched organoids [1]; Dose 0.40 uM) | Dose.FC.LYZ.NS (ISC-enriched organoids [1]; Dose 2.00 uM) [log 2 fold change] | Z.LYZ.NS (ISC-enriched organoids [1]; Dose 2.00 uM) | Dose.FC.LYZ.NS (ISC-enriched organoids [1]; Dose 10.00 uM) [log 2 fold change] | Z.LYZ.NS (ISC-enriched organoids [1]; Dose 10.00 uM) | Dose.FC.LYZ.S (ISC-enriched organoids [2]; Dose 0.08 uM) [log 2 fold change] | Dose.FC.LYZ.S (ISC-enriched organoids [2]; Dose 0.40 uM) [log 2 fold change] | Dose.FC.LYZ.S (ISC-enriched organoids [2]; Dose 2.00 uM) [log 2 fold change] | Dose.FC.LYZ.S (ISC-enriched organoids [2]; Dose 10.00 uM) [log 2 fold change] | Dose.FC.CTG (ISC-enriched organoids [3]; Dose 0.08 uM) [log 2 fold change] | Z.CTG (ISC-enriched organoids [3]; Dose 0.08 uM) | Dose.FC.CTG (ISC-enriched organoids [3]; Dose 0.40 uM) [log 2 fold change] | Z.CTG (ISC-enriched organoids [3]; Dose 0.40 uM) | Dose.FC.CTG (ISC-enriched organoids [3]; Dose 2.00 uM) [log 2 fold change] | Z.CTG (ISC-enriched organoids [3]; Dose 2.00 uM) | Dose.FC.CTG (ISC-enriched organoids [3]; Dose 10.00 uM) [log 2 fold change] | Z.CTG (ISC-enriched organoids [3]; Dose 10.00 uM) |
| --- | --- | --- | --- | --- | --- | --- | --- | --- | --- | --- | --- | --- | --- | --- | --- | --- | --- | --- | --- | --- |
| O=C(NC(NC(=S)Nc1ccc(F)c([N+](=O)[O-])c1)C(Cl)(Cl)Cl)C(c1ccccc1)c1ccccc1 (centres unmarked) [CGK733] | 0.099 | 0.863 | −0.026 | −0.222 | −0.099 | −0.865 | −0.122 | −1.063 | 0.008 | −0.018 | −0.125 | −0.230 | −0.362 | −0.864 | −0.093 | −0.221 | −0.244 | −0.582 | −0.478 | −1.143 |
| Nc1ncnc2n[nH]c(Nc3ccc(F)cc3)c12 [CGP57380] | 0.218 | 1.900 | −0.041 | −0.354 | −0.055 | −0.477 | −0.037 | −0.321 | 0.096 | 0.054 | −0.095 | −0.088 | 0.108 | 0.258 | −0.293 | −0.700 | −0.460 | −1.098 | 0.055 | 0.132 |
| O=c1[nH]c2ccc(Cl)cc2c(N[C@@H]2CN3CCC2CC3)c1-c1nc2ccccc2[nH]1 [CHIR-124] | −0.155 | −1.352 | −0.240 | −2.090 | −0.220 | −1.916 | −0.140 | −1.223 | −0.267 | −0.339 | −0.352 | −0.332 | −0.256 | −0.612 | −0.853 | −2.038 | −0.861 | −2.057 | −1.555 | −3.714 |
| Cc1[nH]c2ccccc2c1CCNC(=O)c1cccs1 [CK-636] | 0.039 | 0.336 | −0.049 | −0.427 | −0.066 | −0.573 | −0.108 | −0.944 | 0.080 | −0.013 | 0.072 | −0.103 | 0.202 | 0.483 | −0.004 | −0.010 | −0.201 | −0.479 | −0.169 | −0.404 |
| C=CC(=O)Nc1cccc(Nc2nc(Nc3ccc(Oc4ccnc(C(=O)NC)c4)cc3)ncc2F)c1 [CNX-774] | 0.075 | 0.655 | −0.008 | −0.067 | 0.158 | 1.378 | −0.043 | −0.376 | 0.014 | −0.027 | 0.082 | −0.089 | 0.259 | 0.619 | 0.177 | 0.422 | −0.109 | −0.260 | −0.081 | −0.194 |
| CN(C)C(=O)[C@H](O)[C@H](Cc1ccccc1)NC(=O)c1cc2cc(Cl)ccc2[nH]1 [CP-91149] | 0.177 | 1.538 | −0.033 | −0.289 | 0.028 | 0.245 | −0.057 | −0.498 | 0.186 | 0.055 | −0.121 | −0.097 | 0.031 | 0.073 | −0.023 | −0.056 | −0.098 | −0.234 | −0.100 | −0.239 |
| O=C(O)c1cc2cccc([N+](=O)[O-])c2[nH]1 [CRT0044876] | 0.016 | 0.135 | 0.034 | 0.298 | 0.047 | 0.408 | 0.032 | 0.278 | −0.002 | 0.055 | 0.014 | −0.061 | −0.171 | −0.410 | −0.040 | −0.096 | −0.081 | −0.192 | −0.099 | −0.237 |
| Cc1ccc([C@@H]2O[C@H](CO)[C@@H](O)[C@H](O)[C@H]2O)cc1Cc1ccc(-c2ccc(F)cc2)s1 [Canagliflozin] | −0.027 | −0.233 | −0.046 | −0.398 | 0.025 | 0.214 | −0.064 | −0.556 | 0.014 | −0.032 | 0.028 | −0.033 | −0.240 | −0.572 | −0.098 | −0.235 | 0.042 | 0.101 | −0.079 | −0.188 |
| CC1(COc2ccc3c(c2)ncn3-c2ccc3cccc(N4CCC(N)CC4)c3n2)COC1 [Crenolanib (CP-868596)] | 0.121 | 1.051 | 0.051 | 0.441 | 0.122 | 1.065 | −0.224 | −1.951 | 0.094 | 0.043 | 0.149 | −0.292 | −0.069 | −0.165 | −0.025 | −0.059 | 0.053 | 0.127 | −0.338 | −0.808 |
| C[C@H]1COC2=C1C(=O)C(=O)c1c2ccc2c1CCCC2(C)C [Cryptotanshinone] | 0.143 | 1.243 | −0.120 | −1.047 | −0.182 | −1.585 | −0.288 | −2.506 | 0.156 | −0.105 | −0.288 | −0.432 | 0.199 | 0.475 | −0.027 | −0.065 | −0.184 | −0.439 | −0.541 | −1.292 |
